Results as given in publication PMC11012124, “Synthesis of Novel Triazine-Based Chalcones and 8,9-dihydro-7H-pyrimido[4,5-b][1,4]diazepines as Potential Leads in the Search of Anticancer, Antibacterial and Antifungal Agents” (International Journal of Molecular Sciences, 2024).
Values after ≈ are worked out from the molar mass of the structure shown. Where two headings read alike, the source gives them in different places.

Legend:
HCC-2998 = experiment: cells; details: Homo sapiens, HCC 2998, 48 h; for CC50: read-out: LC50
TK-10 = experiment: cells; details: Homo sapiens, TK-10, 48 h; for CC50: read-out: LC50
[1] = system: N. gonorrhoeae ATCC 49226; experiment: MIC on GC agar plates; assay type: cell-based, Neisseria gonorrhoeae
In short: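 N. gonorrhoeae (1 × 10^4 CFU) was spotted onto IsoVitaleX-supplemented (1%) GC agar containing graded compound levels. The lowest inhibitory concentration was recorded as the MIC, with oxidase testing used to verify growth, and each assay was done in duplicate on at least two separate occasions.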

T-47D = experiment: cells; details: Homo sapiens, T47D, 48 h; for CC50: read-out: LC50
K-562 = experiment: cells; details: Homo sapiens, K562, 48 h; for GI50: K-562, 48 h; for CC50: read-out: LC50
PC-3 = experiment: cells; details: Homo sapiens, PC-3, 48 h; for CC50: read-out: LC50
A498 = experiment: cells; details: Homo sapiens, A498, 48 h; for CC50: read-out: LC50
SK-OV-3 = experiment: cells; details: Homo sapiens, SK-OV-3, 48 h; for CC50: read-out: LC50
[2] = Hemolytic activity, spectrophotometric; assay type: cell-based, human; details: human, human red blood cells (huRBC), 5% hematocrit, 200 μg/mL, 37 °C
CAKI-1 = experiment: cells; details: Homo sapiens, CAKI-1, 48 h; for CC50: read-out: LC50
MDA-MB-468 = experiment: cells; details: Homo sapiens, MDA-MB-468, 48 h; for CC50: read-out: LC50
NCI-H522 = experiment: cells; details: Homo sapiens, NCI-H522, 48 h; for CC50: read-out: LC50
HOP-92 = experiment: cells; details: Homo sapiens, HOP-92, 48 h; for CC50: read-out: LC50
MCF7 = experiment: cells; details: Homo sapiens, MCF7, 48 h; for CC50: read-out: LC50
NCI/ADR-RES = experiment: cells; details: Homo sapiens, 48 h; for CC50: read-out: LC50
MOLT-4 = experiment: cells; details: Homo sapiens, MOLT-4, 48 h; for CC50: read-out: LC50
RXF 393 = experiment: cells; details: Homo sapiens, RXF 393, 48 h; for CC50: read-out: LC50
LOX IMVI = experiment: cells; details: Homo sapiens, 48 h; for CC50: read-out: LC50, LOX IMVI, 48 h
MDA-MB-231/ATCC = experiment: cells; details: Homo sapiens, MDA-MB-231, 48 h; for CC50: read-out: LC50
OVCAR-3 = experiment: cells; details: Homo sapiens, OVCAR-3, 48 h; for CC50: read-out: LC50
SF-539 = experiment: cells; details: Homo sapiens, SF-539, 48 h; for CC50: read-out: LC50, SF-539, 48 h
[3] = system: M. tuberculosis ATCC 27294; experiment: Antitubercular broth microdilution MIC; assay type: cell-based; details: Mycobacterium tuberculosis; M. tuberculosis ATCC 27294 (H37Rv); read-out: Minimum inhibitory concentration (MIC)
HT29 = experiment: cells; details: Homo sapiens, HT-29, 48 h; for CC50: read-out: LC50
UACC-62 = experiment: cells; details: Homo sapiens, UACC-62, 48 h; for CC50: read-out: LC50
DU-145 = experiment: cells; details: Homo sapiens, DU-145, 48 h; for CC50: read-out: LC50
HS 578T = experiment: cells; details: Homo sapiens, 48 h; for CC50: read-out: LC50
[4] = Neisseria gonorrhoeae, ATCC49226, read-out: MIC

Structure (SMILES): CN(C)c1nc(NCCNS(=O)(=O)c2ccc(C3=Nc4c(N)nc(N)nc4NC(c4ccccc4)C3)cc2)nc(Nc2ccc(F)cc2)n1 (centres unmarked) [31a]
- GI50 (HCC-2998): 11.7 µM
- CC50 (HCC-2998): > 100 µM
- GI50 (TK-10): > 100 µM
- CC50 (TK-10): > 100 µM
- MIC [1, 4]: 8 µg/mL (≈ 11.7 µM)
- GI50 (T-47D): 5.12 µM
- CC50 (T-47D): > 100 µM
- GI50 (K-562): 4.33 µM
- CC50 (K-562): > 100 µM
- GI50 (PC-3): 3.84 µM
- CC50 (PC-3): > 100 µM
- CC50 (A498): > 100 µM
- GI50 (SK-OV-3): > 100 µM
- CC50 (SK-OV-3): > 100 µM
- hemolysis at 24 h, 200 µg/mL [2]: 1%
- GI50 (CAKI-1): 9.73 µM
- CC50 (CAKI-1): > 100 µM
- GI50 (MDA-MB-468): 3.37 µM
- CC50 (MDA-MB-468): 13.7 µM
- GI50 (NCI-H522): 77.4 µM
- CC50 (NCI-H522): > 100 µM
- GI50 (HOP-92): 2.18 µM
- CC50 (HOP-92): 9.96 µM
- GI50 (MCF7): 3.85 µM
- CC50 (MCF7): 85.5 µM
- GI50 (NCI/ADR-RES): > 100 µM
- CC50 (NCI/ADR-RES): > 100 µM
- GI50 (MOLT-4): 3.11 µM
- CC50 (MOLT-4): > 100 µM
- GI50 (RXF 393): 2.55 µM
- CC50 (RXF 393): 8.95 µM
- GI50 (LOX IMVI): 9.96 µM
- CC50 (LOX IMVI): 25.7 µM
- GI50 (MDA-MB-231/ATCC): 6.16 µM
- CC50 (MDA-MB-231/ATCC): 67.6 µM
- GI50 (OVCAR-3): 69.3 µM
- CC50 (OVCAR-3): > 100 µM
- GI50 (SF-539): 12 µM
- CC50 (SF-539): 63.8 µM
- MIC [3]: 1.2 µg/mL (≈ 1.75 µM)
- GI50 (HT29): 5.32 µM
- CC50 (HT29): > 100 µM
- GI50 (UACC-62): 31.5 µM
- CC50 (UACC-62): > 100 µM
- GI50 (DU-145): > 100 µM
- CC50 (DU-145): > 100 µM
- GI50 (HS 578T): 6.43 µM
- CC50 (HS 578T): > 100 µM

Structure (SMILES): Cc1ccc(C2CC(c3ccc(S(=O)(=O)NCCNc4nc(Nc5ccc(F)cc5)nc(N(C)C)n4)cc3)=Nc3c(N)nc(N)nc3N2)cc1 (centres unmarked) [31b]
- GI50 (HCC-2998): 2.93 µM
- CC50 (HCC-2998): 41.1 µM
- GI50 (TK-10): > 100 µM
- CC50 (TK-10): > 100 µM
- MIC [1, 4]: 8 µg/mL (≈ 11.5 µM)
- GI50 (T-47D): 8.75 µM
- CC50 (T-47D): > 100 µM
- GI50 (K-562): 2.75 µM
- GI50 (PC-3): 3.33 µM
- CC50 (PC-3): > 100 µM
- GI50 (A498): > 100 µM
- CC50 (A498): > 100 µM
- GI50 (SK-OV-3): > 100 µM
- CC50 (SK-OV-3): > 100 µM
- hemolysis at 24 h, 200 µg/mL [2]: 1.7%
- GI50 (CAKI-1): 8.06 µM
- CC50 (CAKI-1): > 100 µM
- GI50 (MDA-MB-468): 2.72 µM
- CC50 (MDA-MB-468): 8.52 µM
- GI50 (NCI-H522): 21.3 µM
- CC50 (NCI-H522): > 100 µM
- GI50 (HOP-92): 2.54 µM
- CC50 (HOP-92): 21 µM
- GI50 (MCF7): 3.08 µM
- CC50 (MCF7): > 100 µM
- GI50 (NCI/ADR-RES): > 100 µM
- CC50 (NCI/ADR-RES): > 100 µM
- GI50 (MOLT-4): 2.2 µM
- CC50 (MOLT-4): 7.53 µM
- GI50 (RXF 393): 2.27 µM
- CC50 (RXF 393): 9.12 µM
- GI50 (LOX IMVI): 2.09 µM
- CC50 (LOX IMVI): 5.11 µM
- GI50 (MDA-MB-231/ATCC): 3.86 µM
- CC50 (MDA-MB-231/ATCC): > 100 µM
- GI50 (OVCAR-3): 9.93 µM
- CC50 (OVCAR-3): > 100 µM
- GI50 (SF-539): 3.29 µM
- CC50 (SF-539): 78.9 µM
- MIC [3]: 0.6 µg/mL (≈ 0.86 µM)
- GI50 (HT29): 2.27 µM
- CC50 (HT29): 4.65 µM
- GI50 (UACC-62): 20.9 µM
- CC50 (UACC-62): > 100 µM
- GI50 (DU-145): > 100 µM
- CC50 (DU-145): > 100 µM
- GI50 (HS 578T): 19.4 µM
- CC50 (HS 578T): > 100 µM

Structure (SMILES): CN(C)c1nc(NCCNS(=O)(=O)c2ccc(C3=Nc4c(N)nc(N)nc4NC(c4ccc(F)cc4)C3)cc2)nc(Nc2ccc(F)cc2)n1 (centres unmarked) [31f]
- GI50 (HCC-2998): 4.22 µM
- CC50 (HCC-2998): > 100 µM
- GI50 (TK-10): > 100 µM
- CC50 (TK-10): > 100 µM
- MIC [1]: 0.25 µg/mL (≈ 0.356 µM)
- MIC [1, 4]: 0.25 µg/mL (≈ 0.356 µM)
- GI50 (T-47D): 4.86 µM
- CC50 (T-47D): > 100 µM
- GI50 (K-562): 2.8 µM
- CC50 (K-562): > 100 µM
- GI50 (PC-3): 5.04 µM
- CC50 (PC-3): > 100 µM
- GI50 (A498): 22.1 µM
- CC50 (A498): > 100 µM
- GI50 (SK-OV-3): > 100 µM
- CC50 (SK-OV-3): > 100 µM
- hemolysis at 24 h, 200 µg/mL [2]: 2.4%
- GI50 (CAKI-1): 6.5 µM
- CC50 (CAKI-1): > 100 µM
- GI50 (MDA-MB-468): 2.15 µM
- CC50 (MDA-MB-468): 6.24 µM
- GI50 (NCI-H522): 34.8 µM
- CC50 (NCI-H522): > 100 µM
- GI50 (HOP-92): 3.09 µM
- CC50 (HOP-92): 23.3 µM
- GI50 (MCF7): 3.16 µM
- CC50 (MCF7): 43.7 µM
- GI50 (NCI/ADR-RES): > 100 µM
- CC50 (NCI/ADR-RES): > 100 µM
- GI50 (MOLT-4): 2.45 µM
- GI50 (RXF 393): 2.48 µM
- GI50 (LOX IMVI): 2.62 µM
- CC50 (LOX IMVI): 9.13 µM
- GI50 (OVCAR-3): 8.09 µM
- CC50 (OVCAR-3): > 100 µM
- GI50 (SF-539): 3.89 µM
- CC50 (SF-539): > 100 µM
- MIC [3]: 1.2 µg/mL (≈ 1.71 µM)
- GI50 (HT29): 3.88 µM
- CC50 (HT29): > 100 µM
- GI50 (DU-145): 52 µM
- CC50 (DU-145): > 100 µM
- GI50 (HS 578T): 5.7 µM
- CC50 (HS 578T): > 100 µM
